From patent publication US10457681B2, “Toll-like receptor 7 (TLR7) agonists having a tricyclic moiety, conjugates thereof, and methods and uses therefor” (BRISTOL-MYERS SQUIBB COMPANY, priority 2017, dated 2019)

Tests used:
human TLR7 = human TLR7 (Homo sapiens (Human), UniProt Q9NYK1); test: HEK-Blue TLR7 reporter assay (TLR7 agonist activity); type: cell-based; conditions: HEK-Blue TLR7 cells, SEAP reporter, 18 h treatment; read-out: TLR7 Agonism (EC50)
Protocol: This example describes a method for assaying TLR7 agonist activity of the compounds disclosed in this specification.
HEK-Blue™ TLR7 cells were added to each well of a 384-well tissue-culture plate (15,000 cells per well) and incubated 16-18 h at 37° C., 5% CO2. Compounds (100 nl) were dispensed into wells containing the HEK-Blue™ TLR cells and the treated cells were incubated at 37° C., 5% CO2. After 18 h treatment ten microliters of freshly-prepared Quanti-Blue™ reagent (Invivogen) was added to each well, incubated for 30 min (37° C., 5% CO2) and SEAP levels measured using an Envision plate reader (OD=620 nm).

interleukin 6 (IL-6) = test: Interleukin 6 induction assay in human whole blood; type: cell-based; conditions: 37° C., 20 h, AlphaLISA
Protocol: This example describes a method for assaying interleukin 6 induction by compounds disclosed in this specification.
Compounds diluted in DMSO were transferred to individual wells of a Matrix Technologies clear, V-bottom 384-well plate using ECHO acoustic liquid handling technology (25 nL per well). Human whole-blood samples (25 uL) were added to each well using a CyBio FeliX liquid handling instrument. The plate was shaken on a plate shaker for three min before incu-bating the reaction mixtures at 37° C. for 20 h. Basel RPMI 1640 medium (supplemented with L-glutamine) was then added to each well (25 uL per well) prior to liberating plasma from each sample by centrifugation (450×g, 5 min, ambient temperature). Treated plasma samples (3 uL) were subsequently transferred to individual wells of a white, shallow, 384-well ProxiPlate (Perkin Elmer) using the FeliX liquid handling instrument and their interleukin 6 levels were measured using AlphaLISA technology as described by the manufacturer, PerkinElmer. Data analyses software was used to determine compound EC50 values where the baseline was established using average DMSO values and 100% induction established using reference compound values at the highest concentration tested. EC50's can be determined with software such as Graphpad Prism™.

IFN-α = conditions: fold lower potency vs corresponding purine-8-one compound; cited from earlier work

Sequence of human TLR7 (Q9NYK1 27-1049): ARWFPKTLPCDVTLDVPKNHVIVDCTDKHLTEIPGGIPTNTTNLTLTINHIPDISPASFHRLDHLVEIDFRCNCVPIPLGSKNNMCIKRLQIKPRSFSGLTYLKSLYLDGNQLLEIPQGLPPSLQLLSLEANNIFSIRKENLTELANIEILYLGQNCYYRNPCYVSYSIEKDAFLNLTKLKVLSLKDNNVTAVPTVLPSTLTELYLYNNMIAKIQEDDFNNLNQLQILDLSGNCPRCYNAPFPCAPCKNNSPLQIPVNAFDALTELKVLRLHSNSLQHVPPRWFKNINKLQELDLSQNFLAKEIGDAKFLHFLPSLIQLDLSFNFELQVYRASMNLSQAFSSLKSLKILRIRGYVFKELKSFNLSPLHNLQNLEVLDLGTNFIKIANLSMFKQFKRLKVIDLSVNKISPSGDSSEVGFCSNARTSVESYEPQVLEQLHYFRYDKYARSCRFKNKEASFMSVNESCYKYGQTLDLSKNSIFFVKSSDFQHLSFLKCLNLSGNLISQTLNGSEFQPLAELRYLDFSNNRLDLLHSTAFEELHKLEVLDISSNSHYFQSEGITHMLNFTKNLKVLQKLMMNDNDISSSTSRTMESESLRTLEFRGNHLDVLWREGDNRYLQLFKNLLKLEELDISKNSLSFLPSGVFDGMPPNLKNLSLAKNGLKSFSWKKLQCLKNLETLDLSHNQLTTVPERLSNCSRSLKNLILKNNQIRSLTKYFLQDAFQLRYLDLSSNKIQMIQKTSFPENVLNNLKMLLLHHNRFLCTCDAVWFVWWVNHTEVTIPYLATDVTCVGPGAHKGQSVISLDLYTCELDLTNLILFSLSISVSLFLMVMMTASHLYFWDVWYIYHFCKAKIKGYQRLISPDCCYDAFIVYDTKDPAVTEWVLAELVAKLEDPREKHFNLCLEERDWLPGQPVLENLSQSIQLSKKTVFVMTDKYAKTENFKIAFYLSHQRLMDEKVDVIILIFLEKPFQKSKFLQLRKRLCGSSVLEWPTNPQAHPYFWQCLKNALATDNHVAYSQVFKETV

EC50 (human TLR7) [nM]	EC50 (interleukin 6 (IL-6)) [nM]	Compound	potency less than that of the corresponding purine-8-one compound, as measured by IFN-α induction (IFN-α) [×]
50	250	CCCCOc1nc(N)c2nc(O)n(Cc3ccc4c(c3)Sc3cc(CO)ccc3N4C)c2n1 [Ia-01]	–
4.7	4.9	CCCCOc1nc(N)c2nc(O)n(Cc3ccc4c(c3)Sc3cc(CNC(C)C)ccc3N4C)c2n1 [Ia-02]	–
39	48	CCCCOc1nc(N)c2nc(O)n(Cc3ccc4c(c3)Sc3cc(CNC)ccc3N4C)c2n1 [Ia-04]	–
580	–	CCCCOc1nc(N)c2nc(O)n(Cc3ccc4c(c3)Sc3cc(CNC5COC5)ccc3N4C)c2n1 [Ia-05]	–
93	750	CCCCOc1nc(N)c2nc(O)n(Cc3ccc4c(c3)Sc3cc(CNC5CCC5)ccc3N4C)c2n1 [Ia-06]	–

More lines, now with the values behind:

Compound	EC50 (human TLR7) [nM]	EC50 (interleukin 6 (IL-6)) [nM]	potency less than that of the corresponding purine-8-one compound, as measured by IFN-α induction (IFN-α) [×]
CCCCOc1nc(N)c2nc(O)n(Cc3ccccc3)c2n1 [Compound B, reference compound]	474	–	–
CCCCOc1nc(N)c2nc(O)n(Cc3ccc4c(c3)Sc3cc(CNCc5ccccc5)ccc3N4C)c2n1 [Ia-03]	8.5	14.4	–
CCCCOc1nc(N)c2nc(O)n(Cc3ccc4c(c3)Sc3cc(CNCc5ccncc5)ccc3N4C)c2n1 [Ia-07]	7.9	–	–
CCCCOc1nc(N)c2c(n1)N(Cc1cccc(CN3CCCC3)c1)CC(=O)N2 [Vesatolimod, vesatolimod, reference compound]	1200	–	100
